Experimental data as given in a melting point compilation (Tetko et al.; mined from patent text by program, amines drawn as free bases though some values may be those of a salt).

melting point	Structure (SMILES)
115 °C	CCCCOc1ccc(-c2ccc([C@H]3CC[C@H](CCC)CC3)c(C#N)c2C#N)cc1
315 to 317 °C	O=C1NCc2c1cc1ccc3c(c1c2-c1ccc(C(F)(F)F)cc1)OCO3
132 °C	COc1ccc(CN(C)CCCc2ccc(NC(=O)c3cccc4c(=O)c5cccc(F)c5[nH]c34)c(C)c2)cc1OC
218 to 220 °C	COc1cc(CCC(=O)Nc2cccc(C(=O)O)c2)ccc1O
332 °C	O=C(Nc1ccncc1)Nc1ccc(-c2nc(N3CCOCC3)c3nnn(C4CCOCC4)c3n2)cc1
162 to 163 °C	CCOC(=O)C1=C(N)NC(N)=C(C(=O)OCC)C1c1cccc2ccccc12
167 to 169 °C	O=C1C(O)=C(N2CCN(c3cccc(C(F)(F)F)c3)CC2)C(=O)c2ccccc21
94 to 97 °C	OC(COc1cccc2[nH]ccc12)CN1CCC(c2c[nH]c3cc(F)ccc23)CC1 (single isomer, unassigned; (+))
170 °C	CCOC(=O)c1cn(C)c2cnc3cc(F)c(N4CCC[C@H]4CNc4ccccc4)cc3c2c1=O
176 °C	O=C(c1ccc(Cl)cc1)c1cc(-c2ccncc2)c(N2CCOCC2)s1
189 to 190 °C	CCCN(CCSc1nc(-c2ccccc2)c(-c2ccccc2)[nH]1)C(=O)Nc1ccc(F)cc1F
88 to 91 °C	OC(CCn1ccnc1)(c1ccccc1)c1ccc2sc3ccccc3c2c1 (stereo not given)
128 to 129 °C	Cc1oc(-c2ccccc2)nc1COc1ccc(CON=C(C(=O)O)C(C)C)cc1
85 to 88 °C	O=C(c1ccc(-c2ccccc2)cc1)C(Br)CCCl (stereo not given)
297 to 300 °C	O=c1[nH]c(=O)n2c3c1cnn3C(c1cccc(C(F)(F)F)c1)CC2 (stereo not given)
104 °C	Oc1cccc2ccc3cccnc3c12
290 °C	O=c1[nH]c2c(c3nc(-c4ccccn4)nn13)CN(Cc1ccccc1)CC2
164 to 167 °C	CC(C)CC1CCCCc2c1oc(=O)c(C(c1ccccc1)C1CC1)c2O (stereo not given)
164 to 168 °C	Fc1ccc(-c2nc(SC(F)(F)C(F)F)[nH]c2-c2cccs2)cc1
169 to 171 °C	COC(C)C(=O)Nc1c(C(=O)c2ccccc2)[nH]c2cc(Cl)ccc12 (stereo not given)
98 to 100 °C	Cc1ccc(-c2ccc3c(c2)C=CCCO3)cc1
233 to 235 °C	CC1(C(=O)c2c[nH]c3ncc(-c4cccc(N5CCN(S(N)(=O)=O)CC5)c4)nc23)CCCCC1
100 to 101 °C	CC1(O)CC(=O)OC(CCCc2ccc(OCc3ccccc3)cc2)C1Br (stereo not given)
142 to 145 °C	CC1c2ccccc2CC(O)Cc2ccccc21 (stereo not given)
135 to 136 °C	COCCNC(=O)c1cccc(-c2cccc3c(C)c(Cc4cccc(C(F)(F)F)c4)sc23)c1
153 to 158 °C	Cc1cc2cc(CN3CCOCC3)cnc2cc1NC(=O)c1ccc(-c2ccc(F)cc2)cc1
85 to 86 °C	COc1ccc(-c2ccc(C(F)(F)CC(CC(O)CSc3ccccc3)C(=O)O)cc2)cc1 (stereo not given)

The remaining lines, values behind:

Structure (SMILES)	melting point
CCOC(=O)N1CCN(C=C2C(=O)Nc3cc(OC)c(OC)cc32)CC1	172 to 174 °C
Cc1cccc(-c2nnc(Nc3ccc(Br)c(Cl)c3)s2)c1	230 to 231 °C
COCCOc1ccc(CCCOC(=O)NCC2CC2)c(Oc2ncc(C(F)(F)F)cc2Cl)c1	87.8 to 87.9 °C
CCCc1nc2c(C(F)(F)F)cccc2c(O)c1C(=O)O	148 °C
CCOC(=O)c1c(Cl)nc2ccc(OC)cc2c1CCl	215 to 219 °C
CC(C)NC(=O)c1nc(-c2cccc(Cl)c2)c(-c2ccc(=O)n(C(C)C)n2)s1	105 to 106 °C
Cc1ccc(S(=O)(=O)n2c(-c3cn(C)c4ccc(-c5ccncc5)cc34)cc3cccnc32)cc1	82 to 85 °C
CC(C)c1cccc2c1OC(C(F)(F)F)C(C(=O)O)=C2 (stereo not given)	210 to 212 °C
CCCOC(=N)c1sc2ccccc2c1O	185 °C
N#Cc1cncc(C=O)c1	96 to 98 °C
Cc1cc(-c2c(-c3ccc(S(C)(=O)=O)cc3)cnn(-c3cccc(Cl)c3)c2=O)ccc1F	228 to 230 °C
O=CN(O)C1(CS(=O)(=O)c2ccc(Oc3ccc(OC(F)(F)F)cc3)cc2)CCC2(CC1)OCCO2	133 to 134 °C
CCc1cccc(C)c1N(CCCC(=O)O)C(=O)CCN(C(C)=O)c1c(C)cccc1C	139 to 141 °C
COc1ccc(CC(=O)c2ccc(OC)cc2OC)cc1	78.5 to 79.5 °C
C#CC1(Oc2ccccc2[N+](=O)[O-])CCN(C(C)=O)CC1	112 to 115 °C
Cn1ncnc1COc1nn2c(-c3ccccc3F)nncc2c1-c1ccccn1	186 to 187 °C
CC(C)[C@H](NC(=O)N(C)Cc1ccccn1)C(=O)N[C@@H](Cc1ccccc1)C[C@H](O)[C@H](Cc1ccccc1)NC(=O)[C@@H](NC(=O)N(C)Cc1ccccn1)C(C)C	92 to 96 °C
Cc1nc2c(s1)-c1nc(Nc3cccc([N+](=O)[O-])c3)ncc1CC2	227 to 228 °C
Cc1noc(C)c1COc1ccc(-c2cc(O)c(SCCc3ccccc3)c(=O)o2)cc1	152 to 154 °C
Cn1cnc(Cc2cccc3c2OC(C)(C)OC3)c1	67 to 72 °C
CCNc1ccc(S(=O)c2ccccc2)cc1[N+](=O)[O-] (stereo not given)	122 to 124 °C
CC(C)(O)c1cc2cc(OCC(=O)O)c(Cl)c(Cl)c2s1	194 to 196 °C

Structure (SMILES)	melting point
COC(=O)CSc1nc(SCc2c(Cl)cccc2Cl)ncc1[N+](=O)[O-]	155 to 158 °C
O=C(O)CC1C2=C(CCCC2)C(=O)N1c1ccc(Cl)cc1 (stereo not given)	177 to 178 °C
COC(=O)[C@@H]1C(=O)Nc2ccccc2C[C@H]1c1ccc2c(c1)OCO2 (racemic)	211 to 214 °C
NNc1ccc(C(=O)O)cn1	292 to 293 °C
CCOC(=O)c1cn2c(n1)CN(C(=O)CCl)c1ccccc1-2	178 to 183 °C
OCCC1=Cc2ccccc2C1	47 to 49 °C
O=P(O)(O)Cc1ccc(-c2ccccc2)cc1	246 to 248 °C
C#Cc1ccnc(-c2cc(N)c(C#Cc3ccc(C(C)=S)cc3)cc2[N+](=O)[O-])c1	185 to 188 °C
CC(C)(C)c1cc(CP(=O)(O)c2ccccc2)cc(C(C)(C)C)c1O	185 to 186 °C
O=C(O)c1cc(S)cc(C(=O)O)c1	240 to 246 °C
O=C(CC(=O)C1CC1)c1ccc2snnc2c1	142 to 144 °C
CN1CCc2c(Br)ccc([N+](=O)[O-])c2C1	85 to 87 °C
C=CCOCN1C(C)=C(C(=O)OCC)C(c2cccc([N+](=O)[O-])c2)C(C(=O)OCC)=C1C	111 to 112 °C
CCOC(=O)c1ccc(-n2ccnc2C)cc1	72 to 73 °C
CCOC(=O)C1=C(O)C(=O)NCC1	142 to 148 °C
CN(C(=O)CN(O)C(N)=O)c1cccc(OCc2ccccc2)c1	162 to 163 °C
CC(C)N1CC(=O)N(c2ccc(O)cc2F)C1=O	190 to 192 °C
CNc1ccc(Cl)cc1Cc1ccccc1	125 °C
NC(=O)c1ccnc(-c2csc(N=C(N)N)n2)c1	169 to 171 °C
CCCOc1ncc(S(C)(=O)=O)cc1-c1nc2c(CC)nn(C[C@@H]3CCCN3C(=O)OC(C)(C)C)c2c(=O)[nH]1	98 to 104 °C
O=C(NC1CC1)c1ccc(N2CCNCC2)cc1	175 to 177 °C
